Source: patent US7718651B2, “Inhibitors of FtsZ and uses thereof” (priority 2002, dated 2010)

system: M. tuberculosis H37Rv; experiment: microbe, parasite or virus in culture; type: cell-based; settings: not given

Point of comparison: CCOC(=O)Nc1cc(NCc2ccccc2)c(N)c(N)n1 [Compound A154], “% Inh” value 12%. Against it:
- CCOC(=O)Nc1cc2c(c(N)n1)N=C(c1ccccc1)[C@H](C)N2 [Compound A110] — higher, 43%
- CCOC(=O)Nc1cc(NCCCCc2ccccc2)c(N)c(N)n1 [Compound A93] — higher, 60%
- CCOC(=O)Nc1cc2c(c(N)n1)N=C(c1ccccc1)[C@H](C)N2 [Compound A108] — higher, 45%

same assay, conditions: M. tuberculosis H37Rv, screen concentration 12.5 g/ml [sic], Table 8

Point of comparison: CCOC(=O)Nc1cc(NC(c2ccccc2)c2ccccc2)c2ncc(=O)[nH]c2n1 [Compound A270], “% Inh” value 0%. Against it:
- CCOC(=O)Nc1cc2c(c(N)n1)N=C1c3ccccc3CCC1O2.Cl.Cl (stereo not drawn) [Compound A85] — higher, 65%
- CCOC(=O)Nc1cc(NCC(=O)COc2ccc(C(=O)OCC)cc2)c([N+](=O)[O-])c(N)n1 [Compound A292] — the same, 0%
- CCOC(=O)Nc1cc(N/N=C/c2ccccc2)c(N)c(N)n1 [Compound A54] — higher, 91%
- CCOC(=O)Nc1cc2c(nc(SCc3ccccc3)n2/N=C/c2ccccc2)c(N)n1 [Compound A132] — higher, 24%
- CCOC(=O)Nc1cc2c(c(N)n1)N=C(c1ccccc1)CS2 [Compound A77] — higher, 71%
- CCOC(=O)Nc1cc(NCC(O)CN(C)c2ccccc2)c([N+](=O)[O-])c(N)n1 (stereo not drawn) [Compound A101] — higher, 54%
- CCOC(=O)Nc1cc2c(c(N)n1)N=C(c1ccccc1)CO2 [Compound A224] — the same, 0%
- CCOC(=O)Nc1cc(Nc2ccc(Cl)cc2)c2nc(-c3ccccc3)c(-c3ccccc3)nc2n1 [Compound A257] — the same, 0%
- CCOC(=O)Nc1cc2[nH]c(-c3ccc4c(c3)OCO4)nc2c(N(CCc2ccccc2)Cc2ccccc2)n1 [Compound A151] — higher, 14%
- CCOC(=O)Nc1cc2c(c(/N=C/N(C)C)n1)N=C(c1ccccc1)CO2 [Compound A230] — the same, 0%
- CCOC(=O)Nc1cc(NC(c2ccccc2)c2ccccc2)c([N+](=O)[O-])c(N)n1 [Compound A264] — the same, 0%
- CCOC(=O)Nc1cc(NC(C)CCCN(CC)CC)c([N+](=O)[O-])c(N)n1.Cl (stereo not drawn) [Compound A269] — the same, 0%
- CCOC(=O)Nc1cc2c(c(N)n1)N=C(c1ccccc1OC)CO2 [Compound A131] — higher, 25%
- CCOC(=O)Nc1cc(NC(C)C(O)c2ccc3c(c2)OCO3)c([N+](=O)[O-])c(N)n1 (stereo not drawn) [Compound A163] — higher, 8%
- CCOC(=O)Nc1cc(NCCC(=O)c2ccccc2)c([N+](=O)[O-])c(N)n1 [Compound A308] — lower, −8%
- CCOC(=O)Nc1cc(NCC(C)CN(C)c2ccc(OC)cc2)c([N+](=O)[O-])c(N)n1 (stereo not drawn) [Compound A233] — the same, 0%
- CCOC(=O)Nc1cc(NC(c2ccccc2)c2ccccc2)c2nc(-c3ccccc3)c(-c3ccccc3)nc2n1 [Compound A119] — higher, 36%
- CCOC(=O)Nc1cc(NC(C)C(O)COc2ccccc2)c([N+](=O)[O-])c(N)n1 (stereo not drawn) [Compound A155] — higher, 11%
- CCOC(=O)Nc1cc(Nc2ccccc2)c2nc[nH]c2n1.Cl [Compound A64] — higher, 84%
- CCOC(=O)Nc1cc(NCC(O)CN)c([N+](=O)[O-])c(NC(=O)OCC)n1 (stereo not drawn) [Compound A271] — the same, 0%
- CCOC(=O)Nc1cc(NC(c2ccccc2)c2ccccc2)c2nc[nH]c2n1 [Compound A216] — the same, 0%
- CCCCC(=O)C(C)Nc1cc(NC(=O)OC)nc(N)c1[N+](=O)[O-] (stereo not drawn) [Compound A180] — higher, 3%
- CCOC(=O)Nc1cc(N/N=C/c2ccccc2)c2nc(SCc3ccccc3)[nH]c2n1 [Compound A57] — higher, 89%
- CCOC(=O)Nc1cc2[nH]c(-c3ccc(C(F)(F)F)cc3)nc2c(N(CCc2ccccc2)Cc2ccccc2)n1 [Compound A32] — higher, 97%
- CCOC(=O)Nc1cc(NC(c2ccccc2)c2ccccc2)c2nc[nH]c2n1.Cl [Compound A280] — the same, 0%
- COc1ccc(OC)c(-c2nc3c(N(CCc4ccccc4)Cc4ccccc4)nc(NC(=O)O)cc3[nH]2)c1 [Compound A30] — higher, 97%
- CCOC(=O)Nc1cc2c(c(N)n1)N=C(Cc1ccccc1)[C@H](C)N2 [Compound A74] — higher, 72%
- CCOC(=O)Nc1cc(NC/C(CN(C)c2ccccc2)=N/O)c([N+](=O)[O-])c(N)n1 [Compound A127] — higher, 30%
- CCOC(=O)Nc1cc2oc(-c3cc(OC)c(OC)c(OC)c3)nc2c(N(CCc2ccccc2)Cc2ccccc2)n1 [Compound A124] — higher, 31%
- CCOC(=O)Nc1cc2c(c(N)n1)N=C(c1cccc(OC)c1)CO2 [Compound A190] — the same, 0%
- CCOC(=O)Nc1cc2[nH]c(-c3cccc(C)c3)nc2c(N(CCc2ccccc2)Cc2ccccc2)n1 [Compound A297] — the same, 0%
- COC(=O)Nc1cc(NC(C)/C(=N/O)c2cccc([N+](=O)[O-])c2)c([N+](=O)[O-])c(N)n1 (stereo not drawn) [Compound A177] — higher, 4%
- CCOC(=O)Nc1cc2ncc(C(=O)N(C)c3ccccc3)nc2c(N)n1 [Compound A123] — higher, 31%
- CCOC(=O)Nc1cc(NC/C(=N/O)c2ccc(C)cc2)c([N+](=O)[O-])c(N)n1 [Compound A210] — the same, 0%
- CCOC(=O)Nc1cc2[nH]c(-c3ccccc3)nc2c(N(CCc2ccccc2)Cc2ccccc2)n1 [Compound A31] — higher, 97%
- CCOC(=O)Nc1cc2c(c(NC(=O)CBr)n1)N=C(c1ccccc1)CO2 [Compound A229] — the same, 0%
- CCOC(=O)Nc1cc(NCC(=O)c2ccc(C)c(C)c2)c([N+](=O)[O-])c(N)n1 [Compound A208] — the same, 0%
- CCOC(=O)Nc1cc2[nH]cnc2c(NC(=O)OCC)n1.Cl [Compound A278] — the same, 0%
- CCOC(=O)Nc1cc(Cl)c2nc(-c3cc(OC)c(OC)c(OC)c3)c(-c3cc(OC)c(OC)c(OC)c3)nc2n1 [Compound A268] — the same, 0%
- CCOC(=O)Nc1cc(NC(C)CCCN(CC)CC)c2ncc(-c3cc(OC)c(OC)c(OC)c3)nc2n1.Cl.Cl (stereo not drawn) [Compound A118] — higher, 40%
- CCCCOC(=O)Nc1cc(NC(c2ccccc2)c2ccccc2)c2nc(-c3cc(OC)c(OC)c(OC)c3)c(-c3cc(OC)c(OC)c(OC)c3)nc2n1 [Compound A267] — the same, 0%
- CCOC(=O)Nc1cc(NC(C)C(=O)c2ccc3c(c2)OCO3)c([N+](=O)[O-])c(N)n1 (stereo not drawn) [Compound A140] — higher, 19%
- Br.CCOC(=O)Nc1cc(N)c([N+](=O)[O-])c(NCC(C)=O)n1 [Compound A75] — higher, 72%
- CCOC(=O)Nc1cc(N)c2nc(-c3ccccc3)c(N)nc2n1 [Compound A141] — higher, 19%
- CCOC(=O)Nc1cc(Nc2ccc(Cl)cc2)c2ncc(C)nc2n1 [Compound A260] — the same, 0%
- CCOC(=O)Nc1cc2c(c(N)n1)N=C(c1ccc(OC)cc1)CO2 [Compound A192] — the same, 0%
- CCOC(=O)Nc1cc(NC/C(=N/O)c2ccc(OC)c(OC)c2OC)c([N+](=O)[O-])c(N)n1 [Compound A212] — the same, 0%
- CCOC(=O)Nc1cc2c(c(N)n1)N=C(c1ccc(OC)c(OC)c1)CO2 [Compound A193] — the same, 0%
- COC(=O)Nc1cc(Cl)cc(NC(=O)OC)n1 [Compound A201] — the same, 0%
- CCOC(=O)Nc1cc2[nH]c(-c3ccccc3)nc2c(N)n1 [Compound A125] — higher, 30%
- CCOC(=O)Nc1cc2c(nc(SCc3ccc4c(c3)OCO4)n2N)c(N)n1 [Compound A91] — higher, 61%
- CCOC(=O)Nc1cc2ncc(CN(C)c3ccccc3)nc2c(N)n1 [Compound A78] — higher, 71%
